# Key:
# SEAP expression = assay: Effect of inhibitory compounds on TNF-induced SEAP expression; format: in vivo, mouse; settings: for inhibition of marker enzyme (SEAP) expression: SEAP-1 animals (Example 2), 1 mg/kg i.v.; for modification of SEAP expression: SEAP-2 animals
# Method: Test 5: Effect of Inhibitory Compounds on SEAP Expression.
# Clasto-lactacystine-β-lactone, a commercially available proteasome inhibitor is dissolved in DMSO (10 μl/100 μg) and further diluted with 90 μl Peg300. This mixture is further diluted 1:10 in saline and injected i.v. to animals of Example 2 at a dose of 1 mg/kg. Ten to 15 min later TNF is administered i.p. to compound-treated or untreated animals of Example 2. Blood samples are taken from the animals at baseline, 6 hours and 24 hours and SEAP levels analyzed.
# [1] = system: SEAP expression under the control of the E-selectin regulatory sequence; assay: LPS and cytokine induction of SEAP expression in heterozygous mice; format: in vivo, mouse; settings: either line (SEAP-1, SEAP-2)
# Method: Test 1: LPS and Cytokine Induction of SEAP Expression in Heterozygous Mice.
# Heterozygous mice of Example 1 and Example 2 are injected with LPS (Sigma, Serotype 0:111B4 Cat. L4130) at a dose of 25 μg per mouse. Murine recombinant TNFα (R&D Systems, Cat No. 410-MT) is diluted in sterile saline and administered at a dose of 500 ng/mouse. Administration is intravenously, e.g., into the tail vein, subcutaneously or intraperitoneally.
# Blood for analysis is taken from a superficial vein of the mouse into heparinized glass hematocrit capillaries. The blood is centrifuged in a table-top Eppendorff centrifuge at maximal speed for 5 min to prepare plasma.
# A standard curve is created with human placental alkaline phosphatase (PAP) (Sigma Cat. P-3895). A stock solution of 2 mg/ml dissolved in buffer (Tris/HCl 50 mM pH 7.4; NaCl 150 mM; BSA 1%) is stored at −80° C. in aliquots. The standard curve is diluted in mouse plasma containing Heparin. The range of the standard curve is between 0.5 and 50000 ng/mL PAP.
# For the enzyme assay the Tropix Kit (Tropix, Cat. No BP300) is used.
# The results are plotted in FIGS. 3 and 4. […] The maximal levels of plasma SEAP are reached at 6 hours post-stimulation in animals of Example 2, the maximum reached in animals of Example 1 is not seen until 24 hours post stimulation. SEAP-2 mice express about 1000-fold more marker enzyme than SEAourP-1 animals. […]
Molecule,inhibition of marker enzyme (SEAP) expression (SEAP expression; 6 hours after TNF),inhibition of marker enzyme (SEAP) expression (SEAP expression; 24 hours after TNF),modification of SEAP expression (SEAP expression; 6 hours after TNF),modification of SEAP expression (SEAP expression; 24 hours after TNF),effect on SEAP induction [1]
"CC(C)[C@H](O)[C@@]12NC(=O)[C@H](C)[C@@H]1OC2=O [clasto-lactacystine-β-lactone, Clasto-lactacystine-β-lactone]",significant inhibition,no effect,does not modify,does not modify,
"IFNg: IFNg, known not to induce E-selectin in vitro; control cytokine (protein, UniProt P01579 24-161, looked up) Interferon gamma: QDPYVKEAENLKKYFNAGHSDVADNGTLFLGILKNWKEESDRKIMQSQIVSFYFKLFKNFKDDQSIQKSVETIKEDMNVKFFNSNKKKRDDFEKLTNYSVTDLNVQRKAIHELIQVMAELSPAAKTGKRKRSQMLFRG",,,,,no effect
